Assay results from PMC5448077, “Development of an orally available inhibitor of CLK1 for skipping a mutated dystrophin exon in Duchenne muscular dystrophy” (Scientific Reports, 2017).

Legend:
[1] = biological target: T1, CDC2-like kinase 1 (CLK1) (Homo sapiens, UniProt P49759); parameters: recombinant GST-tagged human CLK1; conditions: 1 µM; inhibitor
Description: These assays rely on the phosphorylation of small synthetic peptides developed for each kinase, and detect activity by changes in electrophoretic mobility (MSA assay) or by binding of a fluorescently labelled peptide to a large micro-particle and concomitant polarization increases (IMAP assay). […] Inhibitor (4×), substrate/ATP-Metal (4×), and kinase (2×) solutions were prepared with assay buffer (20 mM HEPES, 0.01% Triton X-100, 2 mM DTT, pH 7.5) and mixed in 384-well plates at room temperature for 1 or 5 h depending on the kinase. Reactions were stopped by the addition of termination buffer (QuickScout Screening Assist MSA; Carna Biosciences). The entire reaction mixture was then applied to a LabChip system (Perkin-Elmer, Waltham, MA, USA) and the product and substrate peptide peaks were separated and quantified, and then heights of product (P) and substrate (S) peptide peaks were calculated. The level of kinase activity was evaluated with the following equation: activity = P/(P + S).

[2] = biological target: EPHA4 (Homo sapiens, UniProt P54764); assay: biochemical
How it was run: (§1)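 Human kinases phosphorylating kinase-specific synthetic peptides, assayed by mobility shift (MSA) or IMAP fluorescence polarization, in 20 mM HEPES pH 7.5, 0.01% Triton X-100, 2 mM DTT with substrate/ATP-metal. Reactions ran 1 or 5 h at room temperature; activity = P/(P + S) from product and substrate peak heights.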

[3] = biological target: EEF2K (Homo sapiens, UniProt O00418); assay: biochemical
How it was run: as §1

[4] = biological target: T2, MST4 (Homo sapiens, UniProt Q9P289); assay: biochemical
T2 construct: gene STK26
How it was run: as §1

[5] = biological target: PAK2 (Homo sapiens, UniProt Q13177); assay: biochemical
How it was run: as §1

[6] = biological target: SPHK2 (Homo sapiens, UniProt Q9NRA0); assay: biochemical
How it was run: as §1

[7] = biological target: CDK2/CycA2 (Homo sapiens, UniProt P24941); assay: biochemical
How it was run: as §1

[8] = biological target: T1, CDC2-like kinase 1 (CLK1); assay: biochemical
[9] = biological target: Haspin (Homo sapiens, UniProt Q8TF76); assay: recombinant kinase panel (IMAP or mobility shift assay), percent inhibition at […] TG693; type: biochemical; conditions: read-out: % inhibition at 1 μM
Sequence of Haspin (Q8TF76 whole entry): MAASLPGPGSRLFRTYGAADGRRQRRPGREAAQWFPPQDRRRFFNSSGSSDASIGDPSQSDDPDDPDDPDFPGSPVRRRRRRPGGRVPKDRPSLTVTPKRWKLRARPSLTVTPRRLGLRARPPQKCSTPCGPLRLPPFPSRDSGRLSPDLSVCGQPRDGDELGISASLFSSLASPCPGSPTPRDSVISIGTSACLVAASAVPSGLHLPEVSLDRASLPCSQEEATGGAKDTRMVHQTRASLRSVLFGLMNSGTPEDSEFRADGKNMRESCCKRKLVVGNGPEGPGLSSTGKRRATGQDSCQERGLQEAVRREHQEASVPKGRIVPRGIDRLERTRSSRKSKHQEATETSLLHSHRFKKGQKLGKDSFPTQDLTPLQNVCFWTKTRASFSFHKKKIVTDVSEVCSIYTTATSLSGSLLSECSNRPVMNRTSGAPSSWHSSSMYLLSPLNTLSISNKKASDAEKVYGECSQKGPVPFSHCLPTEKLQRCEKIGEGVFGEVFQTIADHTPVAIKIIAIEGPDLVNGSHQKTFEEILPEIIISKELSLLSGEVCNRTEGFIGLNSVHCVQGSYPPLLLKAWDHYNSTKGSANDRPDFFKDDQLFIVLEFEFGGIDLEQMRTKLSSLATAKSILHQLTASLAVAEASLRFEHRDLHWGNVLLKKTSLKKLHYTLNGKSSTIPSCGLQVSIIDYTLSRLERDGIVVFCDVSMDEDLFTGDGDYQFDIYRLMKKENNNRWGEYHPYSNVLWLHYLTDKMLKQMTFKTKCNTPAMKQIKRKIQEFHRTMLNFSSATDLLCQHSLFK

T1 sequence (P49759 whole entry): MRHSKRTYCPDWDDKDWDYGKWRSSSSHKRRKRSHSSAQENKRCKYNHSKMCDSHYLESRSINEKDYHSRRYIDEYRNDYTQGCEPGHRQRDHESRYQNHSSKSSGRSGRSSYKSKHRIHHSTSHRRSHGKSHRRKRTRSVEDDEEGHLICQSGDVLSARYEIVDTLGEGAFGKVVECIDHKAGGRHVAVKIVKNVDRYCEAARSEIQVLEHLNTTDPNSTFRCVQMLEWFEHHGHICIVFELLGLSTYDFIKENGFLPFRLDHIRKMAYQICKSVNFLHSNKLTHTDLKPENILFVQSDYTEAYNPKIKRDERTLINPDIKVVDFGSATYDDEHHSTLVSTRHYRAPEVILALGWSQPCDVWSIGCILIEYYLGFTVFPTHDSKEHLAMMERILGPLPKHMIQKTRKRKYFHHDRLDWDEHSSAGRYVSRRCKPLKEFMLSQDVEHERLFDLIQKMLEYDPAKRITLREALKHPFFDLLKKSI
Sequence of EEF2K (O00418 whole entry): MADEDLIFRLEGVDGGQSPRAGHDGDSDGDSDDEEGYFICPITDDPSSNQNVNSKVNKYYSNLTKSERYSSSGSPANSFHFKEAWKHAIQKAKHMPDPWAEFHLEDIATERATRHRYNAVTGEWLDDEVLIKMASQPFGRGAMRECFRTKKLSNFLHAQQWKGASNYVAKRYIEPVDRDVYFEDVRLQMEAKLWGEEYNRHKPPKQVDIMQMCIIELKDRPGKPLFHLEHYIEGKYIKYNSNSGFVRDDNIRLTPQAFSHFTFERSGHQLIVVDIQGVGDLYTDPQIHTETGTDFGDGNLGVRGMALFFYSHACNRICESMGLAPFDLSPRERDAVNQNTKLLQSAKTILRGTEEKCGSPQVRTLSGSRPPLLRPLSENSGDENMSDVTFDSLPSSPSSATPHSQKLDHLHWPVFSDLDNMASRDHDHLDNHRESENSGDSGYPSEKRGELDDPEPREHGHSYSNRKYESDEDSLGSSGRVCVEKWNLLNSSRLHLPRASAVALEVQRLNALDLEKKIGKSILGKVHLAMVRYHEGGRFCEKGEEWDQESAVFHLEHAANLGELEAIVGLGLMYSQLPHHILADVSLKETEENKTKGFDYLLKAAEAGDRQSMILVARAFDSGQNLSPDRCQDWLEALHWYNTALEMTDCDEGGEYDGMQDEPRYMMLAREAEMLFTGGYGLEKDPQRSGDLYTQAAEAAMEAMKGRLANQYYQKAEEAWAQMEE
Sequence of PAK2 (Q13177 whole entry): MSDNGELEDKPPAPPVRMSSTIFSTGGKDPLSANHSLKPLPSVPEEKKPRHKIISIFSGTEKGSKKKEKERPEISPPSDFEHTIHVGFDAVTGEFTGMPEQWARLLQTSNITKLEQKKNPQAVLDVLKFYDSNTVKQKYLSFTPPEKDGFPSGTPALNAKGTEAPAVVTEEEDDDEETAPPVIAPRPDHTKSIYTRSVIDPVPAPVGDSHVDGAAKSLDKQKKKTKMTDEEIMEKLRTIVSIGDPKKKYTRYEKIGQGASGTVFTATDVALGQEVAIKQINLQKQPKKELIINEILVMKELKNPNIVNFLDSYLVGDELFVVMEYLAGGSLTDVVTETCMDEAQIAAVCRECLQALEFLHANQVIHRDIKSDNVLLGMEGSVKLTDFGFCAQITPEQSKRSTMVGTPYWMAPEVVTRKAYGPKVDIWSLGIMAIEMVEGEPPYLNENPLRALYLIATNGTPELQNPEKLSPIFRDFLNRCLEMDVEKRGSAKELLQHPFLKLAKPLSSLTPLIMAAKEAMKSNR
T2 sequence (Q9P289 whole entry): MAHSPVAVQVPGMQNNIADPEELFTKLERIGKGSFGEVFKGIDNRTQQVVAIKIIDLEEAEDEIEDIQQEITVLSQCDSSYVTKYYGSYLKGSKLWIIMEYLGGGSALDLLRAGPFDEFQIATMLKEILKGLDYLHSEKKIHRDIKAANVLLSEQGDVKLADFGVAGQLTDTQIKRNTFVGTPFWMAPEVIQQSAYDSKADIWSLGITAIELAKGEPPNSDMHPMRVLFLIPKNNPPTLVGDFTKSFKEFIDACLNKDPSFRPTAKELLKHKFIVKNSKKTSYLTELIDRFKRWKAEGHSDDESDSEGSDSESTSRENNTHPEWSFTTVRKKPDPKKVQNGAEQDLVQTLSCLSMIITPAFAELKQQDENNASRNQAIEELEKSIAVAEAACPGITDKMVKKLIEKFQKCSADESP
Sequence of SPHK2 (Q9NRA0 whole entry): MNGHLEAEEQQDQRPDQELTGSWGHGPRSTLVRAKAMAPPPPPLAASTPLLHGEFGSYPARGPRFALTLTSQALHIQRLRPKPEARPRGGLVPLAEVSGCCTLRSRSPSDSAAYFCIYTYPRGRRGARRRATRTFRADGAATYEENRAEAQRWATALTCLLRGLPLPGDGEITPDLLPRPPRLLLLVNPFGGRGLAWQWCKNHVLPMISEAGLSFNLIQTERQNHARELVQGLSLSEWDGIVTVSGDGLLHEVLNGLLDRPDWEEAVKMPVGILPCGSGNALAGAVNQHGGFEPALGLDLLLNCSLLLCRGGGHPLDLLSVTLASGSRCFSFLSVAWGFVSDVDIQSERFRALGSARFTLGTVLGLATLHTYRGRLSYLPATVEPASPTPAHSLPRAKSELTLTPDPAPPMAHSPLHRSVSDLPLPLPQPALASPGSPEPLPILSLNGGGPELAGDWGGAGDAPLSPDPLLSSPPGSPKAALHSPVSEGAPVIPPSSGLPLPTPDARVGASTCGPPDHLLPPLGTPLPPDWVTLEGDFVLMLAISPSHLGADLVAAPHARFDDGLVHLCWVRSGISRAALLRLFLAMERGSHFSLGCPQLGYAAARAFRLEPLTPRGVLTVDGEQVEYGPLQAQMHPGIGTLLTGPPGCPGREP
Sequence of EPHA4 (P54764 whole entry): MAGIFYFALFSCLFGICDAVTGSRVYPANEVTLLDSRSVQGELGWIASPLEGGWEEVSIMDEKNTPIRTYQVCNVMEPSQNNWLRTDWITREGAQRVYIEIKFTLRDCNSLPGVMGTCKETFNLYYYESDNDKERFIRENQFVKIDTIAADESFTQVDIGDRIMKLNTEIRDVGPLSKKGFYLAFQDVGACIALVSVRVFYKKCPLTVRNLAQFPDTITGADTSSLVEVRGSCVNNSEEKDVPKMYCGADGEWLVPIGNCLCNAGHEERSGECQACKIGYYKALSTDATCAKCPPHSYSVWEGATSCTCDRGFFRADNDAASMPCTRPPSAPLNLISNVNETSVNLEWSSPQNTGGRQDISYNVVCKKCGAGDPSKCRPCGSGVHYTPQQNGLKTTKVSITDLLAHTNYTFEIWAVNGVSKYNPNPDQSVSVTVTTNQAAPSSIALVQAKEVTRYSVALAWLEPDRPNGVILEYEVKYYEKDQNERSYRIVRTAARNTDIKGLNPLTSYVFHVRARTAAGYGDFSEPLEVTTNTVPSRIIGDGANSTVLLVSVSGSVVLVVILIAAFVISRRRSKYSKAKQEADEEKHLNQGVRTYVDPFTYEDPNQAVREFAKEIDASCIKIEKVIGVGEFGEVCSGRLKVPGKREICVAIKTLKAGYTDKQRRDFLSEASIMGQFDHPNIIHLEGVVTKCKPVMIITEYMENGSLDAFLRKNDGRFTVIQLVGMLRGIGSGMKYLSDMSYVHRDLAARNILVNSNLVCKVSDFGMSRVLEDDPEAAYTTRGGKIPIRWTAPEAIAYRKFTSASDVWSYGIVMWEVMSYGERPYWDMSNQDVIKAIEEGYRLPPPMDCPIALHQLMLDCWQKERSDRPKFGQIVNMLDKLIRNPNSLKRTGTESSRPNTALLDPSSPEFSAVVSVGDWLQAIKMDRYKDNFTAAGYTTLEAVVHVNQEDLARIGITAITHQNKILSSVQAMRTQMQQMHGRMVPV

c1cc(-c2ccc3[nH]ncc3c2)ccn1 [TG693, 5-(4-pyridinyl)-1H-indazole]
%Inhibition [1]: 92.6%
inhibition at 1 µM [2]: 2.4%
inhibition at 1 µM [3]: -15.2%
inhibition at 1 µM [4]: 4.1%
inhibition at 1 µM [5]: -51.3%
inhibition at 1 µM [6]: 4.1%
inhibition at 1 µM [7]: 41.4%
Ki [8]: 105 nM
inhibition at 1 µM [9]: > 90%
